{"source": "ChEMBL document CHEMBL4118287", "about": "“Polysaccharide deacetylases serve as new targets for the design of inhibitors against Bacillus anthracis and Bacillus cereus” (Bioorg Med Chem, 2018)", "key": {"[1]": {"test_system": "Bacillus anthracis", "assay": "Inhibition of Bacillus anthracis 7702 BA1977 assessed as induction of lysozyme sensitivity at 10 to 50 uM incubated for 250 mins under shaking condition measured every 30 mins"}, "[2]": {"test_system": "Bacillus anthracis", "assay": "Inhibition of Bacillus anthracis 7702 BA1977 assessed as induction of lysozyme sensitivity at 50 uM incubated for 250 mins under shaking condition measured every 30 mins"}, "[3]": {"target": "T1, Peptidoglycan-N-acetylglucosamine deacetylase BC_1974 (Bacillus cereus (strain ATCC 14579 / DSM 31 / JCM 2152 / NBRC 15305 /NCIMB 9373 / NRRL B-3711), UniProt Q81EJ6)", "T1 sequence (Q81EJ6 whole entry)": "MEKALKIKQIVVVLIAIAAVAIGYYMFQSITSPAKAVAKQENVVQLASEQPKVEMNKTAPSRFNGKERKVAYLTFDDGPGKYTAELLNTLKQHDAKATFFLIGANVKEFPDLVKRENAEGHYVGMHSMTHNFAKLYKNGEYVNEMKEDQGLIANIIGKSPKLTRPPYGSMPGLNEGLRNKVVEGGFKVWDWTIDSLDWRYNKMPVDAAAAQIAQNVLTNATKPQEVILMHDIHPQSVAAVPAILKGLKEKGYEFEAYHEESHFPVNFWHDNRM", "assay": "Inhibition of recombinant Bacillus cereus BC1974 expressed in Escherichia coli using GlcNAc5 as substrate measured after 5 mins by fluorescamine based fluorescence assay"}, "[4]": {"target": "T2, Peptidoglycan-N-acetylglucosamine deacetylase BC_1960 (Bacillus cereus (strain ATCC 14579 / DSM 31 / JCM 2152 / NBRC 15305 /NCIMB 9373 / NRRL B-3711), UniProt Q81EK9)", "T2 sequence (Q81EK9 whole entry)": "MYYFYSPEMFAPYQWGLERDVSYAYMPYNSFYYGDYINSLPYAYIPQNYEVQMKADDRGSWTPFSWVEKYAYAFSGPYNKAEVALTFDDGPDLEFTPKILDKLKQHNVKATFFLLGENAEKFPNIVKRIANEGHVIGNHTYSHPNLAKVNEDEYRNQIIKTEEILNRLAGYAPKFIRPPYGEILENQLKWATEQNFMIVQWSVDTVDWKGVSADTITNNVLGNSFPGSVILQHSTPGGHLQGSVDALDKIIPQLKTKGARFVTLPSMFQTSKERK", "assay": "Inhibition of recombinant Bacillus cereus BC1960 expressed in Escherichia coli using GlcNAc5 as substrate measured after 10 mins by fluorescamine based fluorescence assay"}, "[5]": {"target": "T1, Peptidoglycan-N-acetylglucosamine deacetylase BC_1974", "assay": "Competitive inhibition of recombinant Bacillus cereus BC1974 expressed in Escherichia coli using varying levels of GlcNAc5 as substrate measured after 5 mins in presence of fluorescamine by Line-weaver burk plot analysis", "conditions": "read-out: Ki(app)"}, "[6]": {"target": "T2, Peptidoglycan-N-acetylglucosamine deacetylase BC_1960", "assay": "Competitive inhibition of recombinant Bacillus cereus BC1960 expressed in Escherichia coli using varying levels of GlcNAc5 as substrate measured after 10 mins in presence of fluorescamine by Line-weaver burk plot analysis", "conditions": "read-out: Ki(app)"}, "[7]": {"test_system": "Bacillus cereus", "assay": "Antibacterial activity against Bacillus cereus ATCC 14579 measured after 16 hrs in absence of lysozyme", "format": "functional", "conditions": "ATCC 14579, 16 h"}, "[8]": {"test_system": "Bacillus anthracis", "assay": "Antibacterial activity against Bacillus anthracis 7702 measured after 16 hrs in absence of lysozyme", "format": "functional", "conditions": "Bacillus anthracis, 7702, 16 h"}, "[9]": {"test_system": "Bacillus cereus", "assay": "Bactericidal activity against Bacillus cereus ATCC 14579 measured after 72 hrs in absence of lysozyme", "format": "functional", "conditions": "ATCC 14579, 72 h"}, "[10]": {"test_system": "Bacillus anthracis", "assay": "Bactericidal activity against Bacillus anthracis 7702 measured after 72 hrs in absence of lysozyme", "format": "functional", "conditions": "Bacillus anthracis, 7702, 72 h"}, "[11]": {"test_system": "Bacillus cereus", "assay": "Antibacterial activity against Bacillus cereus ATCC 14579 measured after 16 hrs in presence of lysozyme", "format": "functional", "conditions": "ATCC 14579, 16 h"}, "[12]": {"test_system": "Bacillus anthracis", "assay": "Antibacterial activity against Bacillus anthracis 7702 measured after 16 hrs in presence of lysozyme", "format": "functional", "conditions": "Bacillus anthracis, 7702, 16 h"}, "[13]": {"test_system": "Bacillus cereus", "assay": "Bactericidal activity against Bacillus cereus ATCC 14579 measured after 72 hrs in presence of lysozyme", "format": "functional", "conditions": "ATCC 14579, 72 h"}, "[14]": {"test_system": "Bacillus anthracis", "assay": "Bactericidal activity against Bacillus anthracis 7702 measured after 72 hrs in presence of lysozyme", "format": "functional", "conditions": "Bacillus anthracis, 7702, 72 h"}, "[15]": {"test_system": "Bacillus cereus", "assay": "Ratio of MBC to MIC for Bacillus cereus ATCC 14579 measured after 16 hrs in absence of lysozyme", "format": "functional"}, "[16]": {"test_system": "Bacillus anthracis", "assay": "Ratio of MBC to MIC for Bacillus anthracis 7702 measured after 16 hrs in absence of lysozyme", "format": "functional"}, "[17]": {"test_system": "Bacillus cereus", "assay": "Ratio of MBC to MIC for Bacillus cereus ATCC 14579 measured after 16 hrs in presence of lysozyme", "format": "functional"}, "[18]": {"test_system": "Bacillus anthracis", "assay": "Ratio of MBC to MIC for Bacillus anthracis 7702 measured after 16 hrs in presence of lysozyme", "format": "functional"}, "[19]": {"test_system": "Bacillus cereus", "assay": "Antibacterial activity against Bacillus cereus ATCC 14579 assessed as production of longer chains of daughter cells at 40 ug/ml incubated 16 hrs under shaking condition by scanning electron microscopic analysis", "format": "functional, organism-based"}, "[20]": {"compound": "O=C(NO)c1ccc(-c2cccc3ccccc23)cc1", "assay": "Competitive inhibition of recombinant Bacillus cereus BC1974 expressed in Escherichia coli assessed as substrate Km at 20 uM using varying levels of GlcNAc5 as substrate measured after 5 mins in presence of fluorescamine by Line-weaver burk plot analysis"}, "[21]": {"compound": "O=C(NO)c1ccc(-c2cccc3ccccc23)cc1", "assay": "Competitive inhibition of recombinant Bacillus cereus BC1974 expressed in Escherichia coli assessed as substrate Km at 40 uM using varying levels of GlcNAc5 as substrate measured after 5 mins in presence of fluorescamine by Line-weaver burk plot analysis"}}, "note": "Active and inactive are the calls of the source. The calls are words filed in the database; no cut-off is given here."}
{"molecule": "O=C(NO)c1cccc(Oc2ccccc2)c1", "values": [{"measurement": "inhibition", "setting": "[1]", "value": "inactive"}]}
{"molecule": "O=C(NO)c1cccc(-c2ccccc2)c1", "values": [{"measurement": "inhibition", "setting": "[1]", "value": "inactive"}]}
{"molecule": "O=C(NO)c1ccc(-c2cccc3ccccc23)cc1", "values": [{"measurement": "inhibition", "setting": "[2]", "value": "Active"}, {"measurement": "IC50", "setting": "[3]", "value": 43.3, "unit": "µM"}, {"measurement": "IC50", "setting": "[4]", "value": 132, "unit": "µM"}, {"measurement": "Ki", "setting": "[5]", "value": 8.7, "unit": "µM"}, {"measurement": "Ki", "setting": "[6]", "value": 66, "unit": "µM"}, {"measurement": "MIC", "setting": "[7]", "value": 6.58, "unit": "µg/mL"}, {"measurement": "MIC", "setting": "[8]", "value": 7.89, "unit": "µg/mL"}, {"measurement": "MBC", "setting": "[9]", "value": 8.23, "unit": "µg/mL"}, {"measurement": "MBC", "setting": "[10]", "value": 8.23, "unit": "µg/mL"}, {"measurement": "MIC", "setting": "[11]", "value": 5.26, "unit": "µg/mL"}, {"measurement": "MIC", "setting": "[12]", "value": 6.58, "unit": "µg/mL"}, {"measurement": "MBC", "setting": "[13]", "value": 8.23, "unit": "µg/mL"}, {"measurement": "MBC", "setting": "[14]", "value": 8.23, "unit": "µg/mL"}, {"measurement": "Ratio", "setting": "[15]", "value": "<4"}, {"measurement": "Ratio", "setting": "[16]", "value": "<4"}, {"measurement": "Ratio", "setting": "[17]", "value": "<4"}, {"measurement": "Ratio", "setting": "[18]", "value": "<4"}, {"measurement": "Activity", "setting": "[19]", "value": "Active"}]}
{"molecule": "O=C(NO)c1cccc2ccccc12", "values": [{"measurement": "inhibition", "setting": "[1]", "value": "inactive"}]}
{"molecule": "Peptidoglycan-N-acetylglucosamine deacetylase BC_1974 (Bacillus cereus (strain ATCC 14579 / DSM 31 / JCM 2152 / NBRC 15305 /NCIMB 9373 / NRRL B-3711)), Q81EJ6 (protein) MEKALKIKQIVVVLIAIAAVAIGYYMFQSITSPAKAVAKQENVVQLASEQPKVEMNKTAPSRFNGKERKVAYLTFDDGPGKYTAELLNTLKQHDAKATFFLIGANVKEFPDLVKRENAEGHYVGMHSMTHNFAKLYKNGEYVNEMKEDQGLIANIIGKSPKLTRPPYGSMPGLNEGLRNKVVEGGFKVWDWTIDSLDWRYNKMPVDAAAAQIAQNVLTNATKPQEVILMHDIHPQSVAAVPAILKGLKEKGYEFEAYHEESHFPVNFWHDNRM", "values": [{"measurement": "Km", "setting": "[20]", "value": 22.8, "unit": "µM"}, {"measurement": "Km", "setting": "[21]", "value": 42, "unit": "µM"}]}
